This passage reports AC1.4 results from patent US11780826B2 (Amgen Inc., priority 2017, dated 2023).

The subject of this assay is Bovine cardiac myofibrils. The assay is described as follows: In vitro model of dose-dependent myofibril ATPase modulation (AC1.4, pyruvate kinase/lactate dehydrogenase-coupled ATPase assay at pCa25). It is filed as biochemical. The settings on record: concentration at which ATPase activity was 1.4-fold higher than the bottom of the dose curve, mean of a minimum of two independent tests. A digest of the protocol: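 Detergent-skinned bovine cardiac myofibrils (typically 0.25-1.0 mg/ml) in Ca-buffered (EGTA/CaCl2) PK/LDH-coupled ATPase assay: 12 mM K-PIPES pH 6.80, 2 mM MgCl2, 1 mM ATP, 1 mM DTT, 0.5 mM NADH, 1.5 mM PEP. Hydrolysis followed at 340 nm; dose response fit to 4-parameter equation; AC1.4 is mean of ≥2 tests.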
`N#CC1CN(S(=O)(=O)N2CCC[C@H](C(=O)N3CCC[C@@H]3C(=O)N[C@H](CO)c3cccc(C(F)(F)F)c3)C2)C1` [Example 404, 1-(((3S)-1-((3-cyano-1-azetidinyl)sulfonyl)-3-piperidinyl)carbonyl)-N-((1S)-2-hydroxy-1-(3-(trifluoromethyl)phenyl)ethyl)-D-prolinamide] yielded an AC1.4 of 1.4525 µM. As for `N#CC1CN(S(=O)(=O)N2CC(C(=O)N3CCC[C@@H]3C(=O)NCc3ccc(C(F)(F)F)cc3)C3CC32)C1` (stereo partly drawn) [Example 503, (2R)-1-(2-((3-cyanoazetidin-1-yl)sulfonyl)-2-azabicyclo[3.1.0]hexane-4-carbonyl)-N-(4-(trifluoromethyl)benzyl)pyrrolidine-2-carboxamide], the AC1.4 stood at 2.3565 µM.

`N#CC1CN(S(=O)(=O)N2CCC[C@H](C(=O)N3CCC[C@@H]3C(=O)NCCc3ccc(C(F)(F)F)cc3)C2)C1` [Example 811, 1-(((3S)-1-((3-cyano-1-azetidinyl)sulfonyl)-3-piperidinyl)carbonyl)-N-(2-(4-(trifluoromethyl)phenyl)ethyl)-D-prolinamide] returned an AC1.4 of 8.7795 µM.

Consider `COc1cccc(C(=O)N2CCC[C@@H]2C(=O)N[C@@H](c2ccc(C(F)(F)F)cc2F)C2CC2)c1` [Example 784, N-((R)-cyclopropyl(2-fluoro-4-(trifluoromethyl)phenyl)methyl)-1-(3-methoxybenzoyl)-D-prolinamide], for which the AC1.4 was 8.852 µM. In the case of `N#CC1CN(S(=O)(=O)N2CCC[C@H](C(=O)N3CCC[C@@H]3C(=O)NCc3ccc(Cl)cc3Cl)C2)C1` [Example 99, 1-(((3S)-1-((3-cyano-1-azetidinyl)sulfonyl)-3-piperidinyl)carbonyl)-N-(2,4-dichlorobenzyl)-D-prolinamide] it was 0.1484 µM; in that of `CS(=O)(=O)c1cc(C(=O)N2C[C@@H](F)C[C@@H]2C(=O)N[C@@H](c2cc(F)c(Cl)cc2F)C2CC2)ccn1` [Example 510, (4S)-N-((R)-(4-chloro-2,5-difluorophenyl)(cyclopropyl)methyl)-4-fluoro-1-((2-(methylsulfonyl)-4-pyridinyl)carbonyl)-D-prolinamide], 2.2505 µM; in that of `CC1(C#N)CN(S(=O)(=O)N2CCC[C@H](C(=O)N3CCC[C@@H]3C(=O)NCc3ccc(C(F)(F)F)cc3)C2)C1` [Example 156, 1-(((3S)-1-((3-cyano-3-methyl-1-azetidinyl)sulfonyl)-3-piperidinyl)carbonyl)-N-(4-(trifluoromethyl)benzyl)-D-prolinamide], 0.2727 µM. In the case of `CS(=O)(=O)c1cccc(C(=O)N2[C@@H](C(=O)NC(c3ccc(C(F)(F)F)cc3F)C3CNC(=O)C3)C[C@H]3C[C@H]32)c1` (stereo partly drawn) [Example 685, (1R,3R,5R)-N-((2-fluoro-4-(trifluoromethyl)phenyl)(5-oxopyrrolidin-3-yl)methyl)-2-(3-(methylsulfonyl)benzoyl)-2-azabicyclo[3.1.0]hexane-3-carboxamide] it was 5.246 µM; in that of `N#CC1CN(S(=O)(=O)N2CCO[C@H](C(=O)N3CCC[C@@H]3C(=O)NCc3ccc(C(F)(F)F)cc3)C2)C1` [Example 149, 1-(((2S)-4-((3-cyano-1-azetidinyl)sulfonyl)-2-morpholinyl)carbonyl)-N-(4-(trifluoromethyl)benzyl)-D-prolinamide], 0.2589 µM.

In turn, `CS(=O)(=O)c1cccc(C(=O)N2CCC[C@@H]2C(=O)N[C@@H](c2cc(F)c(C(F)(F)F)cc2F)[C@H]2C[C@H](O)C2)c1` [Example 828, (R)-N-((R)-(2,5-difluoro-4-(trifluoromethyl)phenyl)((lr,3R)-3-hydroxycyclobutyl)methyl)-1-(3-(methylsulfonyl)benzoyl)pyrrolidine-2-carboxamide] yielded an AC1.4 of 0.1639 µM. The value for `CC(C)c1cc(C(=O)N2[C@@H](C(=O)N[C@@H](c3ccc(C(F)(F)F)cc3F)C3COC3)C[C@H]3C[C@H]32)ccn1` [Example 748, (1R,3R,5R)-N-((R)-(2-fluoro-4-(trifluoromethyl)phenyl)(3-oxetanyl)methyl)-2-((2-(2-propanyl)-4-pyridinyl)carbonyl)-2-azabicyclo[3.1.0]hexane-3-carboxamide] was 7.314 µM. `C[C@@H](NC(=O)[C@H]1CCCN1C(=O)[C@@H]1CN(S(=O)(=O)N2CC(C#N)C2)CCO1)c1ccc(C(F)(F)F)cc1F` [Example 73, 1-(((2S)-4-((3-cyano-1-azetidinyl)sulfonyl)-2-morpholinyl)carbonyl)-N-((1R)-1-(2-fluoro-4-(trifluoromethyl)phenyl)ethyl)-D-prolinamide] yielded an AC1.4 of 0.09745 µM. For the molecule `Cc1ccc(CNC(=O)[C@H]2CCCN2C(=O)c2cccc(S(=O)(=O)N3CC(C#N)C3)c2)cc1` [Example 106, 1-((3-((3-cyano-1-azetidinyl)sulfonyl)phenyl)carbonyl)-N-(4-methylbenzyl)-D-prolinamide], the AC1.4 was 0.164 µM. The value for `CS(=O)(=O)c1ccc(C(=O)N2CCC[C@@H]2C(=O)N[C@@H](c2cc(F)c(Cl)cc2F)C2CC2)cn1` [Example 215, N-((R)-(4-chloro-2,5-difluorophenyl)(cyclopropyl)methyl)-1-((6-(methylsulfonyl)-3-pyridinyl)carbonyl)-D-prolinamide] was 0.4666 µM.

The molecule `CC(C)[C@@H](NC(=O)[C@H]1CCCN1C(=O)c1cccc(S(=O)(=O)N(C)C)c1)c1ccc(C(F)(F)F)cc1F` [Example 185, 1-(3-(dimethylsulfamoyl)benzoyl)-N-((1R)-1-(2-fluoro-4-(trifluoromethyl)phenyl)-2-methylpropyl)-D-prolinamide] displayed an AC1.4 of 0.3371 µM. In the case of `N#CC1CN(S(=O)(=O)N2CCC[C@H](C(=O)N3CCC[C@@H]3C(=O)NCc3cccc(C(F)(F)F)c3F)C2)C1` [Example 335, 1-(((3S)-1-((3-cyano-1-azetidinyl)sulfonyl)-3-piperidinyl)carbonyl)-N-(2-fluoro-3-(trifluoromethyl)benzyl)-D-prolinamide], the AC1.4 was found to be 0.9362 µM. As for `O=C(N[C@@H](c1ccc(C(F)(F)F)cc1F)C1CC1)[C@H]1CCCN1C(=O)c1cccc(C(F)(F)F)c1` [Example 252, N-((R)-cyclopropyl(2-fluoro-4-(trifluoromethyl)phenyl)methyl)-1-(3-(trifluoromethyl)benzoyl)-D-prolinamide], the AC1.4 was 0.6066 µM.

In the case of `CS(=O)(=O)c1cccc(C(=O)N2CCCC[C@@H]2C(=O)N[C@@H](c2ccc(C(F)(F)F)c(F)c2)C2CC2)c1` [Example 300, (2R)-N-((R)-cyclopropyl(3-fluoro-4-(trifluoromethyl)phenyl)methyl)-1-(3-(methylsulfonyl)benzoyl)-2-piperidinecarboxamide], the AC1.4 stood at 0.7928 µM.

As for `CC(NC(=O)[C@H]1CCCN1C(=O)[C@H]1CCCN(S(=O)(=O)N2CC(C#N)C2)C1)c1ccc(F)cc1` (stereo partly drawn) [Example 729, 1-(((3S)-1-((3-cyano-1-azetidinyl)sulfonyl)-3-piperidinyl)carbonyl)-N-((1R)-1-(4-fluorophenyl)ethyl)-D-prolinamide,1-(((3S)-1-((3-cyano-1-azetidinyl)sulfonyl)-3-piperidinyl)carbonyl)-N-((1S)-1-(4-fluorophenyl)ethyl)-D-prolinamide], the AC1.4 came out at 6.7185 µM. In the case of `N#CC1CN(S(=O)(=O)c2cccc(C(=O)N3CCC[C@@H]3C(=O)N[C@H](CO)c3ccc(Cl)c(F)c3)c2)C1` [Example 24, N-((1S)-1-(4-chloro-3-fluorophenyl)-2-hydroxyethyl)-1-(3-((3-cyano-1-azetidinyl)sulfonyl)benzoyl)-D-prolinamide] it was 0.02875 µM. Regarding `CC[C@H](NC(=O)[C@H]1CCCN1C(=O)[C@H]1CCCN(S(=O)(=O)N2CC(C#N)C2)C1)c1ccc(C(F)(F)F)cc1F` [Example 293, 1-(((3S)-1-((3-cyano-1-azetidinyl)sulfonyl)-3-piperidinyl)carbonyl)-N-((1S)-1-(2-fluoro-4-(trifluoromethyl)phenyl)propyl)-D-prolinamide], the AC1.4 is 0.7603 µM. The value for `Cc1cc(C(C)NC(=O)[C@H]2CCCN2C(=O)[C@H]2CCCN(S(=O)(=O)N3CC(C#N)C3)C2)ccc1F` (stereo partly drawn) [Example 592, (2R)-1-((S)-1-((3-cyanoazetidin-1-yl)sulfonyl)piperidine-3-carbonyl)-N-(1-(4-fluoro-3-methylphenyl)ethyl)pyrrolidine-2-carboxamide] was 3.477 µM; that for `Cc1ccc(CNC(=O)[C@H]2CCCN2C(=O)c2cccc(S(=O)(=O)N3CC(C#N)C3)c2)nc1` [Example 520, 1-(3-((3-cyano-1-azetidinyl)sulfonyl)benzoyl)-N-((5-methyl-2-pyridinyl)methyl)-D-prolinamide] was 2.5075 µM; that for `Cc1ccc([C@@H](C)NC(=O)[C@H]2CCCN2C(=O)[C@H]2CCCN(S(=O)(=O)N3CC(C#N)C3)C2)cc1` [Example 285, 1-(((3S)-1-((3-cyano-1-azetidinyl)sulfonyl)-3-piperidinyl)carbonyl)-N-((1R)-1-(4-methylphenyl)ethyl)-D-prolinamide] was 0.7351 µM. The value for `Cc1ccc(CNC(=O)[C@H]2CCCN2C(=O)[C@H]2CCCN(S(=O)(=O)N3CC(C#N)C3)C2)c(F)c1` [Example 181, 1-(((3S)-1-((3-cyano-1-azetidinyl)sulfonyl)-3-piperidinyl)carbonyl)-N-(2-fluoro-4-methylbenzyl)-D-prolinamide] was 0.3278 µM. With `Cc1ccc(C(=O)N2[C@@H](C(=O)N[C@@H](c3ccc(C(F)(F)F)cc3F)C3COC3)C[C@H]3C[C@H]32)cc1S(C)(=O)=O` [Example 727, (1R,3R,5R)-N-((R)-(2-fluoro-4-(trifluoromethyl)phenyl)(3-oxetanyl)methyl)-2-(4-methyl-3-(methylsulfonyl)benzoyl)-2-azabicyclo[3.1.0]hexane-3-carboxamide], the AC1.4 is 6.61 µM.
